The text below walks through data of paper doi:10.1101/2023.03.24.534094v2 (biorxiv, 2023).

Assay in all cases: biochemical
One assay has as its target T1, MYT1 (Homo sapiens, UniProt Q99640).
T1 sequence (Q99640 1-499): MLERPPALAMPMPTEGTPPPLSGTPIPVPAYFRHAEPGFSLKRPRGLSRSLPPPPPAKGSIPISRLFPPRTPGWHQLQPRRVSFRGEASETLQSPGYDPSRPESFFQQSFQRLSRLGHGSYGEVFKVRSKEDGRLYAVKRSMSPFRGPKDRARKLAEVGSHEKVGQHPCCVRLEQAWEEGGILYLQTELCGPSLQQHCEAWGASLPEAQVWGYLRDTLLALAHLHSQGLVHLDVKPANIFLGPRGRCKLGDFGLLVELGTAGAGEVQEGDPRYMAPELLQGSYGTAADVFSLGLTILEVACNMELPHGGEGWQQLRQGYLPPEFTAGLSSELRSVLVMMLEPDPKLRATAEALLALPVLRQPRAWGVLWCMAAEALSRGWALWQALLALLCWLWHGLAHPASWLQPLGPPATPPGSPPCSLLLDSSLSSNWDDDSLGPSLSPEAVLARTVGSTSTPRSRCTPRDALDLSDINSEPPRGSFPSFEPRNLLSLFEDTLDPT

For the next assay, the target named is T2, PHKG2 (Homo sapiens, UniProt P15735).
T2 sequence (P15735 1-406): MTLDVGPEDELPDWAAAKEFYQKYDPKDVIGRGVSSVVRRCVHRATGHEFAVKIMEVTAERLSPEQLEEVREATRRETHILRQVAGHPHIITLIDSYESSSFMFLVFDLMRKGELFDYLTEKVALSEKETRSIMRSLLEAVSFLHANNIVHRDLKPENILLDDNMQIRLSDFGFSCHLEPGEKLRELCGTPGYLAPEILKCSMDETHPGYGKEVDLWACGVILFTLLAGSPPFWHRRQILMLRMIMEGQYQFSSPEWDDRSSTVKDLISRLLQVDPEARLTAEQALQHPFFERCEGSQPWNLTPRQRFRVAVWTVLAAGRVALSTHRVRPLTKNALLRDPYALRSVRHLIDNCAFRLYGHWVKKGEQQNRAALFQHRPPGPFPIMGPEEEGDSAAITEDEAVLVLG

The target in another assay is T3, DRAK2 (Homo sapiens, UniProt O94768).
T3 sequence (O94768 1-372): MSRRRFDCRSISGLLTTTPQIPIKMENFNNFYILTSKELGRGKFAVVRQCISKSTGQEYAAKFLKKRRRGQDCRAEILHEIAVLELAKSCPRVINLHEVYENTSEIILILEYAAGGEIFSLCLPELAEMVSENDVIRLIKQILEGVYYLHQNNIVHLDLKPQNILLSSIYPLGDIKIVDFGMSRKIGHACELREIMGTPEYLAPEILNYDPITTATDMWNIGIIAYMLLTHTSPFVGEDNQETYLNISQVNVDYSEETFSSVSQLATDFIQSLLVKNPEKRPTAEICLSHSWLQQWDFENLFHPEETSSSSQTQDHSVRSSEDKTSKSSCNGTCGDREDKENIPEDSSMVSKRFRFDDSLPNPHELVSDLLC

A further assay addresses PIM1 (Homo sapiens, UniProt P11309).
A further assay deals with T4, BRPF1 (Homo sapiens, UniProt P55201).
T4 sequence (P55201 1-1214): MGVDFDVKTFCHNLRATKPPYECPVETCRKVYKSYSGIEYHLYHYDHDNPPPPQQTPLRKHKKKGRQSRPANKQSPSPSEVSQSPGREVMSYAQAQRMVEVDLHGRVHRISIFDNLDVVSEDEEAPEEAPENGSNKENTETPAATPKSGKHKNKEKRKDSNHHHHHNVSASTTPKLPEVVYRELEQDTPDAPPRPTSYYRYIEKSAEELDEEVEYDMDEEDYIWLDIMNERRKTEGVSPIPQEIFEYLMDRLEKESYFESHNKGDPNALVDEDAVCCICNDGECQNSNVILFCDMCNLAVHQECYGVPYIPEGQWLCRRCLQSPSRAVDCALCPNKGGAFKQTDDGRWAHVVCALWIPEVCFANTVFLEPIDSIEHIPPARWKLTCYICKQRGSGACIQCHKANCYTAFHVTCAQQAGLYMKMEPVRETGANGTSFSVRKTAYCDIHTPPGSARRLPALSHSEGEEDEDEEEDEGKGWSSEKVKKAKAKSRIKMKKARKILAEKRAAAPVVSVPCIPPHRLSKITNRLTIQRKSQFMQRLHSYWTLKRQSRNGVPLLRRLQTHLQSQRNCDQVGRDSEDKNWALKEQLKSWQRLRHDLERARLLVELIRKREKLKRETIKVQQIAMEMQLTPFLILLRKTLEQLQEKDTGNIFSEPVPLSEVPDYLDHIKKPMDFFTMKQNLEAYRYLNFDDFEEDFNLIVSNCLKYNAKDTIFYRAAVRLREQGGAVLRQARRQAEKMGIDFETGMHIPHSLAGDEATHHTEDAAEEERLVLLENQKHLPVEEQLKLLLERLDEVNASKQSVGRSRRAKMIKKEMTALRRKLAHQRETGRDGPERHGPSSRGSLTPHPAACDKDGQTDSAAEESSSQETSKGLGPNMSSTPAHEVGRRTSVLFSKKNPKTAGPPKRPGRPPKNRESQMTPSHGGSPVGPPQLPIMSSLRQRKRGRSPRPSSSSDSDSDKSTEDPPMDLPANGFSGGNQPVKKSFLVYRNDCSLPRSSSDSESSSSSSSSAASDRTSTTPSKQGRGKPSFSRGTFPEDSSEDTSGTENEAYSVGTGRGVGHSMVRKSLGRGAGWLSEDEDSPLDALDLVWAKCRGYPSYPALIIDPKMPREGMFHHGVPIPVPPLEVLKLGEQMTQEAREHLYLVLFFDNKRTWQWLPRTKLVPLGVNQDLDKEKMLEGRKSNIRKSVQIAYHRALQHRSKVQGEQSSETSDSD

Read-outs that look alike come from different tables or passages of the source.

Sequence of PIM1 (P11309 whole entry): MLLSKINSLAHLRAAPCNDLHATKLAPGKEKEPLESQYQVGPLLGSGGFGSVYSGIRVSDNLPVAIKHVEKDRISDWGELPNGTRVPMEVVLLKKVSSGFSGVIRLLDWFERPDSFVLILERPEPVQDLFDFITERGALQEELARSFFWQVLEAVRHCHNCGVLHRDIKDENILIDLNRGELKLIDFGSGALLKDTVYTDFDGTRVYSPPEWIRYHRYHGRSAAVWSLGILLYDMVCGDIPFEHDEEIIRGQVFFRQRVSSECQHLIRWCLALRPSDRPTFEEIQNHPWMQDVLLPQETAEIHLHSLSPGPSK

Turning to `CNc1ncc2cc(-c3ccc(-c4cccc(C)n4)cc3Cl)c(=O)n(CC3OCC(N)CO3)c2n1` (stereo not shown) [compound 2, G-5555], the “dTm G-5555 (2)” value was -2.1 °C at MYT1 (10 µM, binder); 0.6 °C at PHKG2 (10 µM, binder); -0.3 °C at DRAK2 (10 µM, binder); -1.6 °C on PIM1 (10 µM, binder); 0.8 °C on BRPF1 (10 µM, binder).
In the case of `CNc1ncc2cc(-c3cc(Br)ccc3Cl)c(=O)n(C[C@H]3OC[C@H](N)CO3)c2n1` [compound 7, 8-(((2r,5r)-5-Amino-1,3-dioxan-2-yl)methyl)-6-(5-bromo-2-chlorophenyl)-2-(methylamino)pyrido[2,3-d]pyrimidin-7(8H)-one], the ΔTm at 10 µM on MYT1 (read-out: dTm 7) was 0.1 °C; on PHKG2 (read-out: dTm 7) it was 0.3 °C; on DRAK2 (read-out: dTm 7) it was 0.1 °C; at PIM1 (read-out: dTm 7), 0.6 °C; at BRPF1 (read-out: dTm 7) it was -0.7 °C.
As to `CNc1ncc2cc(-c3cc(Br)ccc3Cl)c(=O)n(CCCCN)c2n1` [compound 6, 8-(4-Aminobutyl)-6-(5-bromo-2-chlorophenyl)-2-(methylamino)pyrido[2,3-d]pyrimidin-7(8H)-one], the ΔTm at 10 µM on MYT1 (read-out: dTm 6) is -1.4 °C; on PHKG2 (read-out: dTm 6), 0.8 °C; at DRAK2 (read-out: dTm 6), -0.2 °C; at PIM1 (read-out: dTm 6), 1.2 °C; on BRPF1 (read-out: dTm 6) it was 0.3 °C.
As to `CNc1ncc2cc(-c3ccccc3Cl)c(=O)n(CCCCN)c2n1` [compound 4, 8-(4-Aminobutyl)-6-(2-chlorophenyl)-2-(methylamino)pyrido[2,3-d]pyrimidin-7(8H)-one], the ΔTm at 10 µM at MYT1 (read-out: dTm MR21 (4)) was -2.3 °C; on PHKG2 (read-out: dTm MR21 (4)), 0.3 °C; on DRAK2 (read-out: dTm MR21 (4)), -0.5 °C; at PIM1 (read-out: dTm MR21 (4)), 0.4 °C; at BRPF1 (read-out: dTm MR21 (4)), 0.7 °C.
As for `CNc1ncc2cc(-c3cc(F)ccc3F)c(=O)n(CCCCN)c2n1` [compound 5, 8-(4-Aminobutyl)-6-(2,5-difluorophenyl)-2-(methylamino)pyrido[2,3-d]pyrimidin-7(8H)-one], the ΔTm at 10 µM at MYT1 (read-out: dTm MR22 (5)) is -2.1 °C; at PHKG2 (read-out: dTm MR22 (5)), 1.4 °C; at DRAK2 (read-out: dTm MR22 (5)), 0.1 °C; on PIM1 (read-out: dTm MR22 (5)), 1.1 °C; on BRPF1 (read-out: dTm MR22 (5)), -1 °C.
